Data as given in patent US20140011799A1 (Bristol-Myers Squibb Company, priority 2012, published 2014).
Where “and” joins values, the source holds several entries; their conditions need not be identical. Equal entries are not always repeated.

Experiments:
[1] = molecular target: T1, Endothelial lipase (EL) (Homo sapiens, UniProt Q9Y5X9); test: Endothelial lipase (EL) enzymatic assay, fluorescent substrate A10070 in DMPG vesicles; assay type: biochemical; settings: EL from conditioned media of HT-1080 cells; compound preincubated 30 min at 37° C; read-out: EL IC50
T1 construct: HT-1080 cells that were transformed using RAGE technology (Athersys) to overexpress endogenous EL; endogenous in cells; conditioned medium used
T1 sequence (Q9Y5X9 21-500): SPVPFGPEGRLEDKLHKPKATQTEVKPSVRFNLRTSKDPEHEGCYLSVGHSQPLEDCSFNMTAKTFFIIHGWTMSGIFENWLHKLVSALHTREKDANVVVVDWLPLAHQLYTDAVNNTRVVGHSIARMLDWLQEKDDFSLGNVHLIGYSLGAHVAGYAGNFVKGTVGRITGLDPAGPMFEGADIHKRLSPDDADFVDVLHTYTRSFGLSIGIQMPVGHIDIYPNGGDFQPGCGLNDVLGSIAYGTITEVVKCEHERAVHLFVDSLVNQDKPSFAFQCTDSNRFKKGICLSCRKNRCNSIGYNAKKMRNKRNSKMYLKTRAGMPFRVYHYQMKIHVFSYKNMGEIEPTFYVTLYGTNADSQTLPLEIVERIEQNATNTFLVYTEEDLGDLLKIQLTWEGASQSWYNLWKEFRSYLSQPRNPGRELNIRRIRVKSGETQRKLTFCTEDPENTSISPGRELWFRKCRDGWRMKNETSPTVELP
In short: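 Substrate A10070 sits in sonicated DMPG vesicles at 0.11 mole fraction. Lipase and compound preincubated 30 min, 37° C, in HEPES pH 8.0 buffer with CaCl2.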

[2] = molecular target: T2, hepatic lipase (HL) (Homo sapiens, UniProt P11150); test: Hepatic lipase (HL) enzymatic assay, fluorescent substrate A10070 in DMPG vesicles; assay type: biochemical; settings: HL partially purified from conditioned media of COS cells; compound preincubated 30 min at 37° C; read-out: HL IC50
T2 construct: made in house; host or cells: COS cells (conditioned medium, partially purified)
T2 sequence (P11150 23-499): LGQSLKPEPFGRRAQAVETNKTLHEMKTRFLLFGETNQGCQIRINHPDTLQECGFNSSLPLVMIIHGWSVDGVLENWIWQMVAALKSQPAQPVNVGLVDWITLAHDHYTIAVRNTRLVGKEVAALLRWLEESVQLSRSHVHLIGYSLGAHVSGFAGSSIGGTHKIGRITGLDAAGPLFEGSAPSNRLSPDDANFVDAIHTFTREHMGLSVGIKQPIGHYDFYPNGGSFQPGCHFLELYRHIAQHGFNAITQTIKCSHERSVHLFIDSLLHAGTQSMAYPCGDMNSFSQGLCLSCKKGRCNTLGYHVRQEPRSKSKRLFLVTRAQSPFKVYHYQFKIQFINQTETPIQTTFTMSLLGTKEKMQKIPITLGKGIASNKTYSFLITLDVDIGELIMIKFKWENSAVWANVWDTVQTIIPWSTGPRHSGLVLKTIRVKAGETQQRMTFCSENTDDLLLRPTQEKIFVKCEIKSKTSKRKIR
Procedure: Endothelial lipase (EL) and hepatic lipase (HL) activities were measured using a fluorescent substrate, A10070, (Invitrogen, CA) doped into an artificial vesicle containing DMPG (Avanti Polar Lipids) as the excipient. Vesicles were prepared by combining 571 μL of 29 mM DMPG in a 1:1 mixture of MeOH and CHCl3 with 2000 μL of 1 mM A10070 in a 1:1 mixture of MeOH and CHCl3. The mixture was dried under nitrogen in multiple vials then resuspended in 20 mL total volume of 50 mM HEPES pH 8.0 buffer containing 50 mM NaCl and 0.2 mM EDTA. The sample was allowed to sit at room temperature for 15 min and then was sonicated 3×4 mins on ice with a Branson Sonicator using duty cycle 1. This preparation provides vesicles with a mole fraction of 0.11 for the FRET substrate.
The enzymatic assay was measured using 384-well white Optiplates. Each well contained 20 μL of assay buffer (50 mM HEPES pH 8.0, 50 mM NaCl and 1 mM CaCl2) and 0.25 μL of a DMSO solution containing a compound of interest. EL or HL (10 μL) was added and allowed to incubate with the compound for 30 min at 37° C. The source of EL was conditioned media obtained from HT-1080 cells that were transformed using RAGE technology (Athersys) to overexpress endogenous EL, and HL was partially purified from conditioned media obtained from COS cells overexpressing HL. The reaction was started by the addition of 10 μL of a 1:10 dilution of vesicles. The final total reaction volume was […]. The reaction rates were measured on a Gemini plate reader with an excitation wavelength of 490 nm and an emission wavelength of 530 nm. Readings were taken over a period of 60 minutes, and the slope between 300 and 900 secs of the readout was used to calculate the rate of the reaction.

IC50 [1] [nM] | IC50 [2] | SMILES
< 10 | – | Cc1cc2nc(C(c3nnc(CC4SC(=O)NC4=O)o3)S(=O)(=O)Cc3ccccc3)sc2cc1-c1ccccc1 (centres unmarked) [Example 97, 5-((5-((benzylsulfonyl) (5-methyl-6-phenyl-benzo[d]thiazol-2-yl)methyl)-1,3,4-oxadiazol-2-yl)methyl)thiazolidine-2,4-dione]
< 10 | 160 nM | CS(=O)(=O)C(c1nnc(CC2SC(=O)NC2=O)o1)c1nc2ccc(-c3ccc(=O)n(Cc4ccccc4)c3)cc2s1 (centres unmarked) [Example 101, 5-((5-((6-(1-benzyl-6-oxo-1,6-dihydro-3-pyridinyl)-1,3-benzothiazol-2-yl)(methylsulfonyl)methyl)-1,3,4-oxadiazol-2-yl)methyl)-1,3-thiazolidine-2,4-dione]
< 10 | < 10 nM and 36 nM | CS(=O)(=O)C(c1nnc(CC2SC(=O)NC2=O)o1)c1nc2ccc(-c3ccnc(C#N)c3)cc2s1 (centres unmarked) [Example 103, 4-(2-((5-((2,4-dioxo-1,3-thiazolidin-5-yl)methyl)-1,3,4-oxadiazol-2-yl)(methylsulfonyl)methyl)-1,3-benzothiazol-6-yl)-2-pyridinecarbonitrile]
< 10 | < 10 nM and 11 nM | CS(=O)(=O)C(c1nnc(CC2SC(=O)NC2=O)o1)c1nc2ccc(-c3cnc(OCc4ccccc4)nc3)cc2s1 (centres unmarked) [Example 104, 5-((5-((6-(2-(benzyloxy)-5-pyrimidinyl)-1,3-benzothiazol-2-yl)(methylsulfonyl)methyl)-1,3,4-oxadiazol-2-yl)methyl)-1,3-thiazolidine-2,4-dione]
< 10 | < 10 nM | CS(=O)(=O)C(c1nnc(CC2SC(=O)NC2=O)o1)c1nc2ccc(-c3ccc(C(=O)OCc4ccccc4)cc3)cc2s1 (centres unmarked) [Example 105, benzyl 4-(2-((5-((2,4-dioxo-1,3-thiazolidin-5-yl)methyl)-1,3,4-oxadiazol-2-yl)(methylsulfonyl)methyl)-1,3-benzothiazol-6-yl)benzoate]
< 10 | – | NS(=O)(=O)NCc1nnc(C(c2nc3ccc(-c4ccc(Cl)cc4)cc3s2)S(=O)(=O)Cc2ccccc2)o1 (centres unmarked) [Example 126, N-((5-((benzylsulfonyl)(6-(4-chlorophenyl)-1,3-benzothiazol-2-yl)methyl)-1,3,4-oxadiazol-2-yl)methyl) sulfamide]

Second part, the compound before the results:

SMILES | IC50 [1] [nM] | IC50 [2]
NS(=O)(=O)NCc1nnc(C(c2nc3ccc(-c4ccccc4)cc3s2)S(=O)(=O)CC(O)CO)o1 (mixture of isomers) [Example 171, N-((5-(((2,3-Dihydroxypropyl)sulfonyl)(6-phenyl-1,3-benzothiazol-2-yl)methyl)-1,3,4-oxadiazol-2-yl)methyl)sulfamide] | < 10 | < 10 nM
Cn1cc(-c2ccc3nc(C(c4nnc(CNC(=O)OC(C)(C)C)o4)S(C)(=O)=O)sc3c2)cn1 (centres unmarked) [Example 98, tert-butyl ((5-((6-(1-methyl-1H-pyrazol-4-yl)-1,3-benzothiazol-2-yl)(methylsulfonyl)methyl)-1,3,4-oxadiazol-2-yl)methyl) carbamate] | 168 | > 25000 nM
CS(=O)(=O)C(c1nnc(CC2SC(=O)NC2=O)o1)c1nc2ccc(C3=CCOCC3)cc2s1 (centres unmarked) [Example 99, 5-((5-((6-(3,6-dihydro-2H-pyran-4-yl)-1,3-benzothiazol-2-yl)(methylsulfonyl)methyl)-1,3,4-oxadiazol-2-yl)methyl)-1,3-thiazolidine-2,4-dione] | < 10 | 142 nM
CS(=O)(=O)C(c1nnc(CC2SC(=O)NC2=O)o1)c1nc2ccc(Br)cc2s1 (centres unmarked) [Example 100, 5-((5-((6-bromo-1,3-benzothiazol-2-yl)(methylsulfonyl)methyl)-1,3,4-oxadiazol-2-yl)methyl)-1,3-thiazolidine-2,4-dione] | 77 | 291 nM
Cc1nc(C)c(-c2ccc3nc(C(c4nnc(CC5SC(=O)NC5=O)o4)S(C)(=O)=O)sc3c2)s1 (centres unmarked) [Example 102, 5-((5-((6-(2,4-dimethyl-1,3-thiazol-5-yl)-1,3-benzothiazol-2-yl)(methylsulfonyl)methyl)-1,3,4-oxadiazol-2-yl)methyl)-1,3-thiazolidine-2,4-dione] | < 10 | < 10 nM
O=C1NC(=O)C(Cc2nnc(C(c3nc4ccc(-c5ccc(C(=O)N6CCOCC6)cc5)cc4s3)S(=O)(=O)CCN3CCOCC3)o2)S1 (centres unmarked) [Example 106, 5-((5-((6-(4-(4-morpholinylcarbonyl)phenyl)-1,3-benzothiazol-2-yl)((2-(4-morpholinyl)ethyl)sulfonyl)methyl)-1,3,4-oxadiazol-2-yl)methyl)-1,3-thiazolidine-2,4-dione] | < 10 | 1340 nM
CC(C)(C)OC(=O)Cc1nnc(C(c2nc3ccc(-c4ccc(C(=O)N5CCOCC5)cc4)cc3s2)S(C)(=O)=O)o1 (centres unmarked) [Example 107, tert-butyl (5-((methylsulfonyl)(6-(4-(4-morpholinylcarbonyl)phenyl)-1,3-benzothiazol-2-yl)methyl)-1,3,4-oxadiazol-2-yl)acetate] | 28 | 13 nM
CC(C)(C)OC(=O)Cc1nnc(C(c2nc3ccc(-c4ccc(C(=O)N5CCOCC5)cc4)cc3s2)S(=O)(=O)Cc2ccccc2)o1 (centres unmarked) [Example 108, tert-butyl (5-((benzylsulfonyl)(6-(4-(4-morpholinylcarbonyl)phenyl)-1,3-benzothiazol-2-yl)methyl)-1,3,4-oxadiazol-2-yl)acetate] | 24 | 14 nM
C[C@]1(Cc2nnc(C(c3nc4ccc(-c5ccc(C(=O)N6CCOCC6)cc5)cc4s3)S(C)(=O)=O)o2)OC(=O)NC1=O (stereo partly drawn) [Example 109, (5R)-5-methyl-5-((5-((methylsulfonyl)(6-(4-(4-morpholinylcarbonyl)phenyl)-1,3-benzothiazol-2-yl)methyl)-1,3,4-oxadiazol-2-yl)methyl)-1,3-oxazolidine-2,4-dione] | < 10 | 764 nM
CS(=O)(=O)C(c1nnc(C[C@H]2NS(=O)(=O)NC2=O)o1)c1nc2ccc(-c3ccc(C(=O)N4CCOCC4)cc3)cc2s1 (stereo partly drawn) [Example 110, (4R)-4-((5-((methylsulfonyl) (6-(4-(4-morpholinylcarbonyl)phenyl)-1,3-benzothiazol-2-yl)methyl)-1,3,4-oxadiazol-2-yl)methyl)-1,2,5-thiadiazolidin-3-one 1,1-dioxide] | 19 | 3240 nM
CC(c1nnc(CNS(N)(=O)=O)o1)c1nc2ccc(-c3ccc(F)nc3)cc2s1 (centres unmarked) [Reference 3, N-((5-(1-(6-(6-Fluoro-3-pyridinyl)-1,3-benzothiazol-2-yl)ethyl)-1,3,4-oxadiazol-2-yl)methyl)sulfamide, reference compound] | 6520 | –
CC(O)(c1nnc(CNS(N)(=O)=O)o1)c1nc2ccc(-c3ccc(F)nc3)cc2s1 (centres unmarked) [Reference 4, N-((5-(1-(6-(6-Fluoro-3-pyridinyl)-1,3-benzothiazol-2-yl)-1-hydroxyethyl)-1,3,4-oxadiazol-2-yl)methyl)sulfamide, reference compound] | 14900 | –
